# Measured values taken from PMC5681660, “Reduced hepatitis B and D viral entry using clinically applied drugs as novel inhibitors of the bile acid transporter NTCP” (Scientific Reports, 2017).
# Where a name gives a salt, the structure may show the parent alone. Read-outs that look alike come from different tables or passages of the source.
# Legend:
# human NTCP [1] = biological target: T1, human NTCP (Homo sapiens, UniProt Q14973); assay: Screening taurocholate uptake assay (96-well, [14C]taurocholate, 10 µM drug)
# T1 sequence (Q14973 1-349): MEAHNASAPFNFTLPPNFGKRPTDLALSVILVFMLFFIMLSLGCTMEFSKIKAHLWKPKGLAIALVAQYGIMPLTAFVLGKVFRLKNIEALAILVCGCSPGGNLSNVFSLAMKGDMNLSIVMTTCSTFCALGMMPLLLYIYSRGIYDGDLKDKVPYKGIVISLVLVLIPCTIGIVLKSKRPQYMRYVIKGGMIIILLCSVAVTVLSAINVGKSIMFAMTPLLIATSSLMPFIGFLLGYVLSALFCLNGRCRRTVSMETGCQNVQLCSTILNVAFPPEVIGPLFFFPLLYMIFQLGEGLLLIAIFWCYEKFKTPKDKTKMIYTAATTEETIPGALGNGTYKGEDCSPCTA
# human NTCP [2] = biological target: T1, human NTCP; assay: Screening fluorescent competitive Myrcludex B-FITC binding assay (96-well, 10 µM drug)
# [3] = Prestwick library screen, taurocholate uptake, 10 µM drug
# [4] = ranking score beside the functional and binding assay B-scores of the screen
# [5] = Prestwick library screen, Myrcludex B-FITC binding, 10 µM drug
# [6] = Prestwick library screen, 10 µM drug, B-score of taurocholate uptake
# [7] = combined ranking from functional and binding assay B-scores
# [8] = Prestwick library screen, 10 µM drug, B-score of Myrcludex B-FITC binding
# [9] = combined ranking from functional and binding screening assays
# [10] = screen, 10 µM drug, taurocholate uptake
# [11] = screen, 10 µM drug, Myrcludex B-FITC binding
structure (smiles),measurement,setting,value
CC12CC3CC(C)(C1)CC(N)(C3)C2 [Memantine Hydrochloride],B-score functional assay,human NTCP [1]; [3],1.46
same,Ranking score,human NTCP [1]; [4],837.42
same,B-score binding assay,human NTCP [2]; [5],-0.02
CC1(C)O[C@@H]2[C@@H](CO[C@@]3(COS(N)(=O)=O)OC(C)(C)O[C@@H]23)O1 [Topiramate],B-score functional assay,human NTCP [1]; [3],1.004
same,Ranking score,human NTCP [1]; [4],700.689
same,B-score binding assay,human NTCP [2]; [5],-0.268
CN(C/C=C/c1ccccc1)Cc1cccc2ccccc12 [Naftifine hydrochloride],B-score functional assay,human NTCP [1]; [3],0.726
same,Ranking score,human NTCP [1]; [4],685.775
same,B-score binding assay,human NTCP [2]; [5],-0.234
[H]/N=C(/NCCCCC)N/N=C/c1c[nH]c2ccc(OC)cc12 [Tegaserod maleate],B-score functional assay,human NTCP [1]; [6],1.009
same,Ranking score,human NTCP [1]; [7],947.847
same,B-score binding assay,human NTCP [2]; [8],0.318
COc1ccc(Cc2nccc3cc(OC)c(OC)cc23)cc1OC [Papaverine hydrochloride],B-score functional assay,human NTCP [1]; [3],-0.09
same,Ranking score,human NTCP [1]; [4],728.955
same,B-score binding assay,human NTCP [2]; [5],0.722
CCN1CC(CCN2CCOCC2)C(c2ccccc2)(c2ccccc2)C1=O.Cl (centres unmarked) [Doxapram hydrochloride],Ranking score,human NTCP [1]; [9],446.058
same,B-score functional assay,human NTCP [1]; [10],0.629
same,B-score binding assay,human NTCP [2]; [11],-1.194
Cc1ncc(C[n+]2csc(CCO)c2C)c(N)n1 [Thiamine hydrochloride],B-score functional assay,human NTCP [1]; [3],1.872
same,Ranking score,human NTCP [1]; [4],830.8
same,B-score binding assay,human NTCP [2]; [5],-0.051
CC[C@@H](CO)NC(=O)[C@@H]1C=C2c3cccc4[nH]cc(c34)C[C@H]2N(C)C1 [Methylergometrine maleate],B-score functional assay,human NTCP [1]; [6],0.963
same,Ranking score,human NTCP [1]; [7],1029.08
same,B-score binding assay,human NTCP [2]; [8],0.851
Nc1ccc(S(=O)(=O)Nc2nccs2)cc1 [Sulfathiazole],Ranking score,human NTCP [1]; [9],386.996
same,B-score functional assay,human NTCP [1]; [10],-1.223
same,B-score binding assay,human NTCP [2]; [11],0.039
Nc1ncnc2c1ncn2[C@@H]1O[C@H](CO)[C@@H](O)[C@@H]1O [Vidarabine],Ranking score,human NTCP [1]; [9],319.086
same,B-score functional assay,human NTCP [1]; [10],-2.606
same,B-score binding assay,human NTCP [2]; [11],1.523
C=C[C@H]1CN2CC[C@H]1C[C@@H]2[C@@H](O)c1ccnc2ccc(OC)cc12.Cl.O [Quinidine hydrochloride monohydrate],Ranking score,human NTCP [1]; [4],834.825
same,B-score binding assay,human NTCP [2]; [5],-0.002
Nc1nc(=O)c2c([nH]1)NCC(CNc1ccc(C(=O)N[C@@H](CCC(=O)[O-])C(=O)[O-])cc1)N2C=O.[Ca+2] (some centres unmarked) [Folinic acid calcium salt],B-score functional assay,human NTCP [1]; [3],0.369
same,Ranking score,human NTCP [1]; [4],806.918
same,B-score binding assay,human NTCP [2]; [5],0.117
C#C[C@]1(O)CC[C@H]2[C@@H]3CCC4=C(CCC(=O)C4)[C@H]3CC[C@@]21C [Norethynodrel],B-score functional assay,human NTCP [1]; [3],0.092
same,Ranking score,human NTCP [1]; [4],749.492
same,B-score binding assay,human NTCP [2]; [5],0.121
N[C@@H](Cc1cc(I)c(Oc2cc(I)c(O)c(I)c2)c(I)c1)C(=O)O [Thyroxine (L)],Ranking score,human NTCP [1]; [9],435.061
same,B-score functional assay,human NTCP [1]; [10],0.005
same,B-score binding assay,human NTCP [2]; [11],-0.765
CCCCNc1cc(C(=O)O)cc(S(N)(=O)=O)c1Oc1ccccc1 [Bumetanide],B-score functional assay,human NTCP [1]; [6],0.161
same,Ranking score,human NTCP [1]; [7],907.588
same,B-score binding assay,human NTCP [2]; [8],1.043
C#C[C@]1(O)CC[C@H]2[C@@H]3CCC4=CC(=O)CCC4=C3C=C[C@@]21CC [Gestrinone],Ranking score,human NTCP [1]; [9],385.482
same,B-score functional assay,human NTCP [1]; [10],-0.358
same,B-score binding assay,human NTCP [2]; [11],-0.596
CCCNC(C)(C)COC(=O)c1ccccc1 [Meprylcaine hydrochloride],Ranking score,human NTCP [1]; [9],382.481
same,B-score functional assay,human NTCP [1]; [10],0.763
same,B-score binding assay,human NTCP [2]; [11],-1.608
CC1COc2c(N3CCN(C)CC3)c(F)cc3c(=O)c(C(=O)O)cn1c23 (centres unmarked) [Ofloxacin],B-score functional assay,human NTCP [1],1.32
same,Ranking score,human NTCP [1],1023.33
same,B-score binding assay,human NTCP [2],0.588
Clc1ccc(C(Cn2ccnc2)OCc2csc3c(Cl)cccc23)c(Cl)c1 (centres unmarked) [Sertaconazole nitrate],B-score functional assay,human NTCP [1]; [3],-0.094
same,Ranking score,human NTCP [1]; [4],730.855
same,B-score binding assay,human NTCP [2]; [5],0.814
CC1(C)O[C@@H]2C[C@H]3[C@@H]4C[C@H](F)C5=CC(=O)CC[C@]5(C)[C@H]4[C@@H](O)C[C@]3(C)[C@]2(C(=O)CO)O1 [Flurandrenolide],Ranking score,human NTCP [1]; [9],407.676
same,B-score functional assay,human NTCP [1]; [10],-0.782
same,B-score binding assay,human NTCP [2]; [11],-0.083
CCC1(c2ccccc2)C(=O)NCNC1=O [Primidone],B-score functional assay,human NTCP [1]; [3],1.471
same,Ranking score,human NTCP [1]; [4],845.018
same,B-score binding assay,human NTCP [2]; [5],-0.009
NCCCNCCSP(=O)(O)O [Amifostine],B-score functional assay,human NTCP [1]; [3],0.006
same,Ranking score,human NTCP [1]; [4],764.099
same,B-score binding assay,human NTCP [2]; [5],0.481
Nc1ccn([C@H]2CC[C@@H](CO)O2)c(=O)n1 [Zalcitabine],B-score functional assay,human NTCP [1]; [3],1.286
same,Ranking score,human NTCP [1]; [4],782.741
same,B-score binding assay,human NTCP [2]; [5],-0.087
O=C(NCNC(=O)NC1C(=O)NC(=O)N1CO)NC1C(=O)NC(=O)N1CO (centres unmarked) [Imidurea],B-score functional assay,human NTCP [1]; [6],1.058
same,Ranking score,human NTCP [1]; [7],960.608
same,B-score binding assay,human NTCP [2]; [8],0.346
COC(=O)C1=C(C)NC(C)=C(C(=O)O[C@@H]2CCCN(Cc3ccccc3)C2)[C@@H]1c1cccc([N+](=O)[O-])c1.Cl (racemic) [Benidipine hydrochloride],Ranking score,human NTCP [1]; [9],426.727
same,B-score functional assay,human NTCP [1]; [10],-0.759
same,B-score binding assay,human NTCP [2]; [11],-0.032
NS(=O)(=O)Cc1noc2ccccc12 [Zonisamide],B-score functional assay,human NTCP [1]; [6],3.016
same,Ranking score,human NTCP [1]; [7],1038.21
same,B-score binding assay,human NTCP [2]; [8],0.365
Cc1onc(-c2c(F)cccc2Cl)c1C(=O)N[C@@H]1C(=O)N2[C@@H]1SC(C)(C)[C@@H]2C(=O)O [Flucloxacillin sodium],B-score functional assay,human NTCP [1]; [6],0.761
same,Ranking score,human NTCP [1]; [7],1024.7
same,B-score binding assay,human NTCP [2]; [8],1.029
CCCCC(O)c1ccccc1 (centres unmarked) [Fenipentol],Ranking score,human NTCP [1]; [9],460.361
same,B-score functional assay,human NTCP [1]; [10],-0.409
same,B-score binding assay,human NTCP [2]; [11],-0.138
CC[C@H]1OC(=O)C[C@@H](O)[C@H](C)[C@@H](O[C@@H]2O[C@H](C)[C@@H](O[C@H]3C[C@@](C)(O)[C@@H](O)[C@H](C)O3)[C@H](N(C)C)[C@H]2O)[C@@H](CC=O)C[C@@H](C)C(=O)/C=C/C(C)=C/[C@@H]1CO[C@@H]1O[C@H](C)[C@@H](O)[C@@H](OC)[C@H]1OC [Tylosin],B-score functional assay,human NTCP [1]; [6],0.165
same,Ranking score,human NTCP [1]; [7],978.04
same,B-score binding assay,human NTCP [2]; [8],2.256
CN(C)C(=N)N=C(N)N [Metformin hydrochloride],B-score functional assay,human NTCP [1]; [3],-0.092
same,Ranking score,human NTCP [1]; [4],761.884
same,B-score binding assay,human NTCP [2]; [5],1.144
"Cc1cn([C@H]2C[C@H](N=[N+]=[N-])[C@@H](CO)O2)c(=O)[nH]c1=O [Zidovudine, AZT]",B-score functional assay,human NTCP [1]; [6],1.119
same,Ranking score,human NTCP [1]; [7],985.737
same,B-score binding assay,human NTCP [2]; [8],0.429
Cc1cc(C)nc([N-]S(=O)(=O)c2ccc(N)cc2)n1.[Na+] [Sulfamethazine sodium salt],B-score functional assay,human NTCP [1]; [3],0.394
same,Ranking score,human NTCP [1]; [4],760.788
same,B-score binding assay,human NTCP [2]; [5],0.015
NC12CC3CC(CC(C3)C1)C2.O=C(O)/C=C/C(=O)O [Adamantamine fumarate],B-score functional assay,human NTCP [1]; [3],-0.004
same,Ranking score,human NTCP [1]; [4],748.28
same,B-score binding assay,human NTCP [2]; [5],0.399
Cc1ccc(N(CC2=NCCN2)c2cccc(O)c2)cc1 [Phentolamine hydrochloride],B-score functional assay,human NTCP [1]; [3],-0.082
same,Ranking score,human NTCP [1]; [4],785.945
same,B-score binding assay,human NTCP [2]; [5],1.392
Cc1c(Cl)cccc1Nc1ncccc1C(=O)O.NCCCC[C@H](N)C(=O)O [Clonixin Lysinate],B-score functional assay,human NTCP [1],-1.707
same,Ranking score,human NTCP [1],317.248
same,B-score binding assay,human NTCP [2],0
CC(CN(C)C)CN1c2ccccc2Sc2ccccc21.CC(CN(C)C)CN1c2ccccc2Sc2ccccc21.O=C(O)C(O)C(O)C(=O)O (centres unmarked) [Trimeprazine tartrate],Ranking score,human NTCP [1]; [9],352.65
same,B-score functional assay,human NTCP [1]; [10],-0.375
same,B-score binding assay,human NTCP [2]; [11],-0.763
